Assay results from patent US10155802B2, “Locally-active anticoagulants and anti-inflammatory agents” (priority 2011, dated 2018).
Read-outs that look alike come from different tables or passages of the source. No end group written: not given here.

How the values were obtained:
[1] = estimated (Cochran 2001), cited from earlier work
rat-tail collagen type I = biological target: T1, rat-tail collagen type I (Rattus norvegicus, UniProt P02454+P02466); assay: Peptide-collagen binding by reduction of collagen fibril alignment (deuterium coupling constant); conditions: collagen gelation under magnetic field in presence of peptide
T1 construct: purchased BD Bioscience; host or cells: rat tail (tissue-derived)
T1 sequence (P02454 152-1207): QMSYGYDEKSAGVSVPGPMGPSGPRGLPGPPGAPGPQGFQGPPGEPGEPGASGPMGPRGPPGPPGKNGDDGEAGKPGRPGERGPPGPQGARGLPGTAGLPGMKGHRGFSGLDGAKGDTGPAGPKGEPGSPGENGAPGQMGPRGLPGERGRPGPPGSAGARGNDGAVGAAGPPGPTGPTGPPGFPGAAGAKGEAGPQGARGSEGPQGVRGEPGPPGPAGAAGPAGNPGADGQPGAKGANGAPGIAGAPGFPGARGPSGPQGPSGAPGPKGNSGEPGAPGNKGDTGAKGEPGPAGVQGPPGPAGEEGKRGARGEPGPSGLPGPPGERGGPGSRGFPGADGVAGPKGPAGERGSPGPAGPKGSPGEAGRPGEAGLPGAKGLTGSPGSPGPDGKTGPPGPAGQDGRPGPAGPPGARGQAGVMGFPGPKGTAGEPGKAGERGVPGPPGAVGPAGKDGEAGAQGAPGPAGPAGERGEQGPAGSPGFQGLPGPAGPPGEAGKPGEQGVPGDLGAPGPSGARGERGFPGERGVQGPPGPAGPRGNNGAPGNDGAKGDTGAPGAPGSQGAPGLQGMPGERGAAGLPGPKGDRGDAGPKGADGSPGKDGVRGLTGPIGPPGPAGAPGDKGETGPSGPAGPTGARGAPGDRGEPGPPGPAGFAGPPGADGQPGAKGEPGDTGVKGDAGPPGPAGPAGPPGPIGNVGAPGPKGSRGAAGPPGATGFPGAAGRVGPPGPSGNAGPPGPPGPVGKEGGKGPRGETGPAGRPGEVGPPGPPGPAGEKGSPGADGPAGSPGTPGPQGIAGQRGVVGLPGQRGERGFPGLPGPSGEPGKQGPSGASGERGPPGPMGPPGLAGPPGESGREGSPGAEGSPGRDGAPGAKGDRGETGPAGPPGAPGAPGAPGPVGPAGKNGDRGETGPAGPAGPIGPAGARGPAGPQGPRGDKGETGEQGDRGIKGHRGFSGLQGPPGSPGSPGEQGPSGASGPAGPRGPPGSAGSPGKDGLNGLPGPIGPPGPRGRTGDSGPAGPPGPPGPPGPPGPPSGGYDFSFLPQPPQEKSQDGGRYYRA
T1 sequence (P02466 86-1125): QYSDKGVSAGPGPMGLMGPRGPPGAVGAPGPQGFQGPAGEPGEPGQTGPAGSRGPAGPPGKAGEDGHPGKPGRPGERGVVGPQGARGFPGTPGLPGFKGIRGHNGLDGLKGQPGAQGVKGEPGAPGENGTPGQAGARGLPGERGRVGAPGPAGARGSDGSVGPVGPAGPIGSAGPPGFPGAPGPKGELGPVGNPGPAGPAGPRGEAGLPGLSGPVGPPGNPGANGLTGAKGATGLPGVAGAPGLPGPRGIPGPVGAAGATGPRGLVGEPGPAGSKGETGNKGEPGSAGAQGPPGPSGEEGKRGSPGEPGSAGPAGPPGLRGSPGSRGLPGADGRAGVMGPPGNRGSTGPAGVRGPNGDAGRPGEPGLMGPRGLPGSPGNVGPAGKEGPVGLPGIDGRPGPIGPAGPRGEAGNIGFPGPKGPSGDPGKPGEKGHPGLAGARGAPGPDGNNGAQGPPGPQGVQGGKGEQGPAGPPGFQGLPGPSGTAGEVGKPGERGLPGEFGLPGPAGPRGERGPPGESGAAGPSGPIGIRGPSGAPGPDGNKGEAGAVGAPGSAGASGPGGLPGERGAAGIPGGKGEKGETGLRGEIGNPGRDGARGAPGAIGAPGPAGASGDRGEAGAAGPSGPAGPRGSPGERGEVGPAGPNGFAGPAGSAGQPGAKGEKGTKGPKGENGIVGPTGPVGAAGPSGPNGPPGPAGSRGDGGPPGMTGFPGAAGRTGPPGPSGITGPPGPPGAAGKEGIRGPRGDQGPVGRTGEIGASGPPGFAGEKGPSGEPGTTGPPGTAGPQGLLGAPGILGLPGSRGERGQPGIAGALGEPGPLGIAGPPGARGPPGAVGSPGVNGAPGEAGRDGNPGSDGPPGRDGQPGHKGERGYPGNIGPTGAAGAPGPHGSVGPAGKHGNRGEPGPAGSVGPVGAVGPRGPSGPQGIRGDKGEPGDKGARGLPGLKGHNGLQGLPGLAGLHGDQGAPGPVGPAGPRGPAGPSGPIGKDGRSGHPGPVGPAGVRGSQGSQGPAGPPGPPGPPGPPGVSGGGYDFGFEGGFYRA
Excerpt: High-resolution proton NMR spectroscopy is used to illustrate the behavior of the linker peptides […] (SEQ ID NO: 2 or gb1), […] (SEQ ID NO: 3 or trpzip6), […] (SEQ ID NO: 4 or trpzip5) and […] (SEQ ID NO: 5 or trpzip4) in aqueous solutions. The peptides were synthesized using standard Fmoc chemistry and purified by reverse-phase HPLC. Their identity was confirmed by mass-spectroscopy and NMR spectroscopy. For NMR studies, a volume of (400-X) μL of a peptide dissolved in pure water was mixed with 50 μL of a 10×PBS (phosphate-buffered saline) supplemented by sodium phosphate to a final concentration of 50 mM and with 50 μL of deuterated water (D2O) to form the reference sample (where X=0) and with a certain volume (X μL) of rat-tail collagen type I (at 3.6 to 4 mg/ml in 0.02 N acetic acid from BD Bioscience), (where X is adjusted to achieve the desired final concentration of collagen), with 50 μL of the 10× modified PBS and with 50 μL of deuterated water (D2O) to form the peptide-collagen complex. The pH value of the reference peptide samples was adjusted to match the pH of the final peptide-collagen complex in order to facilitate NMR spectral comparison.
The peptide-collagen solutions were subjected to gelation under magnetic field guidance (see Example 7) followed by the measurement of fibril alignment (Ma 2008) as a semi-quantitative indication of peptide-collagen binding. […]

thrombin = thrombin (Homo sapiens, UniProt P00734); assay: Fibrinogen clotting assay (concentration needed to double the clotting time = IC50); format: biochemical; conditions: IC50 (anti-clotting), T = 37° C.
Method: The same enzyme kinetic assays were used to determine the inhibitory activities of MH2 and two MH2-derived peptides, MH2-allGS and MH2-GS (Table 4). Clotting assays were carried out to determine the inhibitory activities of the rest of the MH2 peptides by use of the protocols described previously (DiMaio 1990; Taka 2000; Su 2004). The assay employs bovine plasma fibrinogen dissolved at 0.1% in 50 mM Tris-Cl, 100 mM NaCl, 0.1% PEG-8000 at pH 7.6 (i.e. the clotting buffer). In addition to the use of optical densities or ODs (Gill 1989), concentrations of the peptide stock solutions were ranked (and corrected when necessary) by use of quantitative proton NMR spectroscopy (Cavaluzzi 2002). Each assay mixture contained a certain concentration of the peptide, and the reaction was started by the addition of human thrombin to a final concentration of approximately 0.5 nM. Optical absorbance of the assay mixtures was measured at 420 nm using the Spectramax™ plate reader. The onset clotting time was determined as an intersection of the baseline and the tangent line at point of inflection of the clotting curve. The concentration of an MH2 peptide needed to double the clotting time was defined as IC50 (DiMaio 1990) as illustrated in FIG. 4 and summarized in Table 4. The correlation between IC50 values and linker unfolding is similar to that for the BTI series of inhibitors (Table 3). […] (Table 3).

pooled human plasma [2] = assay: Prothrombin time (PT, thromboplastin) clotting assay; format: biochemical
Method: (§1) Prothrombin (clotting) time (PT) or activated partial thromboplastin (clotting) time (APTT) assays were carried out at certain concentrations of the thrombin inhibitors of the present invention using pooled human plasma with addition of thromboplastin or activated partial thromboplastin to initiate clotting. The assays employed kits from Biopool International (Ventura, Calif., USA) or from Pacific Haemostasis (Middletown, Va., USA) using the procedures supplied by the manufacturer. Briefly, the stock solution of an inhibitor (with the concentration determined using UV-based OD determination, see Gill 1989) is diluted in a buffer of 20 mM HEPES and 150 mM NaCl at pH 7.4 (HBS) to a final volume of 50 μL, to which is added the reconstituted normal plasma (Product #CMS-176172 from Fisher Scientific) in an equal volume. This solution mixture is equilibrated at 37° C. for 2 minutes before 50 μL of the APTT-10XL solution (CMS-022927) is introduced forcibly to ensure proper mixing. This new mixture was incubated at 37° C. for another 5 minutes, which is followed by the addition of 50 μL of 0.02 M […] (Fisher Scientific CMS-022925) pre-warmed at 37° C. For the prothrombin time (PT) assay, an inhibitor is diluted in HBS to a final volume of 25 μL, to which is added the reconstituted control plasma (Fisher Scientific CMS-176172) in an equal volume. This solution mixture is equilibrated at 37° C. for 5 minutes before addition of 100 μL of the thromboplastin solution (CMS-176099) pre-warmed at 37° C. For APTT assays, inhibitory activities of the peptides are expressed as concentrations needed to achieve 50% of the maximum delay in clotting time (MCT50) as compared to the absence of thrombin inhibitors (Maraganore 1989). For PT assays, inhibitory activities are measured as the concentrations of the peptides that prolong the clotting time by 50% (IC50) of that of the normal control plasma (Maraganore 1990). PT and APTT assays were also carried out using slightly modified experimental procedures. Thus, 50 μL of a control plasma (Pacific Hemostasis) solution was added to 100 μL HBS (20 mM HEPES and 150 mM NaCl at pH 7.4) containing varied concentrations of the peptides of this invention. After incubation at 37° C. for 5 min, the mixture was added to 50 μL of the thromboplastin or activated partial thromboplastin reagent. Clotting of the plasma was monitored by change in absorbance at 420 nm using a SpectraMax™ plate reader.

[3] = tested on: FeCl3-induced venous thrombosis (vena cava); assay: FeCl3-induced venous model of thrombosis in rats (thrombus weight); format: in vivo; conditions: rat, single-bolus injection via tail vein
Method: Male Sprague-Dawley rats (250-310 g; Charles River Laboratories, St-Constant, QC, Canada) were acclimated for at least 3 days prior to the start of the study. Animals were housed in microisolator cages and were kept on a 12-hr light/dark cycle with constant temperature and humidity. Food and water were provided ad libitum. Various anti-thrombotic agents and peptides of this invention were dissolved in saline (0.9% sodium chloride) prior to use.
The FeCl3-induced venous model of thrombosis in rats was generated as described by Wang and Xu (Wang 2005) with some modifications (Couture 2011). Briefly, rats were anesthetized with a 2.5% isoflurane/oxygen mixture and placed on a heat source (35-37° C.). The vena cava was then exposed via a midline incision and the region between the renal and iliolumbar veins was isolated. […]
Protein content of the thrombus was also measured according to protocol by Wang (Wang 2005). […] Contents of amino acids and small peptides were measured at OD280 with digestion buffer used as a blank.
Statistical analysis was conducted using GraphPad™ Prism (GraphPad Software Inc., San Diego Calif., USA). Data were analyzed using one-way ANOVA with post-hoc Bonferroni correction for multiple comparisons. The relationship between thrombus weight and thrombus volume was determined by linear regression. […]

[4] = tested on: fresh blood withdrawn from rats with venous thrombosis; assay: Clotting time (aPTT) of fresh blood withdrawn from treated rats; format: in vivo; conditions: rat, 0.2 mg/kg bolus + 0.00433 mg/kg/min infusion; 20 minutes after administration versus before
Method: FIG. 23 illustrates the clotting times (aPTT) determined for fresh blood withdrawn from rats with venous thrombosis at three time points, the first before drug administration and vessel injury, the second at 20 minutes after FeCl3 application and the third 60 minutes following injection of the respective thrombin inhibitors. Clotting times (aPTT) are shown for different rats administered with each thrombin inhibitor, ZIP4 for MH2-wZIP4, ZIP5 for MH2-wZIP5 and T218 for BRI-T218. Dosage levels for every compound were 0.2 mg/kg for the single-bolus injection and 0.00433 mg/kg/min for the maintenance infusion,
Terminal blood samples were analyzed for aPTT within 15 to 30 minutes of collection using a Coag DX Analyzer with aPTT citrate cartridges (IDEXX Laboratories, Westbrook, Me., USA).

pooled human plasma [5] = assay: Activated partial thromboplastin time (APTT) clotting assay; format: biochemical; conditions: 37° C.; concentration for 50% of maximum delay in clotting time; read-out: MTC50 (APTT)
Method: as §1

Molecule | population of unfolded species, non-zero ΔCp taken into account ([1]; 21° C.) | population of unfolded species, non-zero ΔCp taken into account ([1]; 37° C.) | reduction of deuterium coupling constant (degree of collagen fibril alignment) (rat-tail collagen type I) | IC50 (thrombin) | concentrations required in PT-APTT curves relative to MH2-GS (pooled human plasma [2]) | IC50 (pooled human plasma [2]; 37° C., concentration that prolongs clotting time by 50%) | reduction of thrombus weight, venous model [3] | clotting time (aPTT), systemic anticoagulant effect [4] | EC50 (pooled human plasma [5])
GEWTYDDATKTFTVTE (not fully specified (C-terminus)) [gb1] | 0.7 | 0.85 | not significantly affected |  |  |  |  |  | 
CC[C@H](C)[C@H](N)C(=O)N[C@@H](CCCNC(=N)N)C(=O)N[C@@H](Cc1ccccc1)C(=O)N[C@H](C(=O)N[C@@H](CC(=O)O)C(=O)NCC(=O)N[C@@H](CCC(=O)O)C(=O)N[C@@H](Cc1c[nH]c2ccccc12)C(=O)N[C@H](C(=O)N[C@@H](Cc1ccc(O)cc1)C(=O)N[C@@H](CC(=O)O)C(=O)N[C@@H](CC(=O)O)C(=O)N[C@@H](C)C(=O)N[C@H](C(=O)N[C@@H](CCCCN)C(=O)N[C@H](C(=O)N[C@@H](Cc1ccccc1)C(=O)N[C@H](C(=O)N[C@@H](Cc1c[nH]c2ccccc12)C(=O)N[C@H](C(=O)N[C@@H](CCC(=O)O)C(=O)NCC(=O)N[C@@H](CC(=O)O)C(=O)N[C@@H](Cc1ccccc1)C(=O)N[C@@H](CCC(=O)O)C(=O)N[C@@H](CCC(=O)O)C(=O)N[C@H](C(=O)N1CCC[C@H]1C(=O)N[C@@H](CCC(=O)O)C(=O)N[C@@H](CCC(=O)O)C(=O)N[C@@H](Cc1ccc(O)cc1)C(=O)N[C@@H](CC(C)C)C(=O)N[C@@H](CCC(N)=O)C(=O)O)[C@@H](C)CC)[C@@H](C)O)[C@@H](C)O)[C@@H](C)O)[C@@H](C)O)[C@@H](C)O)[C@@H](C)O [MH2-wZIP5] |  |  |  | 107 nM | about 2.5 times | < 300 nM | comparable to MH2-wZIP4 | only a slight prolongation of the clotting time (aPTT) | 2000 nM
